We go through one compound from patent publication EP2118065B1, “Substituted 1H-benz[de]isoquinoline-1,3-diones” (priority 2007, dated 2008).

The test system of assay [1] is Ehrlich ascites carcinoma (EAC). In words: In vivo anticancer activity: increase in median survival time. Set-up: species or system Swiss albino male mice. The settings on record: 60 mg/kg i.p., 7 injns., days 1-7.
In assay [2] the test system is MOLT-4 cells. In words: Annexin V-FITC/PI flow cytometric analysis of apoptosis. Format: cell-based, Human. The settings on record: 6 hrs. On the procedure:
Events of apoptosis were analyzed using Annexin V-FITC Apoptosis Detection Kit (A 2214 Sigma Aldrich, USA). Human leukemia Cells (MOLT-4, 1x10^6 cells/ml) in 6-well plate were treated with Compound 3f (3 and 5µg/ml), camptothecin (5µM) and incubated for 6 hrs. After incubation, the cells were centrifuged, rinsed with PBS twice and re-suspended in binding buffer (10 mM HEPES/NaOH, pH 7.5 containing 0.14M NaCl and 25 mM CaCl2). An aliquot (500 µl) of suspension was stained with of Annexin V-FITC (5 µl) and Propidium Iodide (10 µl). The cells were stored for 10 minutes at room temperature in the dark and then analyzed by BD-LSR flow cytometer (Becton Dickinson, USA) at two wavelengths to measure fluorescence for of Annexin V & PI binding at 515 and 639 nm.

The test system of assay [3] is U-937 lymphoma. In words: MTT in vitro cytotoxicity. The following applies: Homo sapiens, U-937, 96 h, read-out: IC50 value Lymphoma U-937.
The test system of assay [4] is IMR-32. Put plainly: SRB in vitro cytotoxicity, human tumor cell line. The following applies: 10^-5 M, Neuroblastoma: IMR-32, read-out: growth inhibition. It is filed as cell-based. On the procedure:
(§1) Compounds 3a-g were screened by sulforhodamine-B (SRB) semi-automated assay in a battery of cell lines. […] A., et. al. (1991); Feasibility high flux anticancer screen utilizing diverse panel of human tumor cell lines in culture. J Natl Cancer Inst. 83, 757-766]. Each compound was tested in triplicate sets of experiments at 10^-4 to 10^-6 M concentrations (Table 4).
(§2) A stock solution of 2 x 10^-2M was prepared in DMSO. The stock solutions were serially diluted to obtain working test solutions with complete growth medium (RPMI-1640 medium with 2mM glutamine, 100µg/ml streptomycin, pH 7.4, sterilized by filtration and supplemented with 10% fetal bovine serum and 100 units/ml penicillin before use) containing 50 µg/ml of gentamycin to obtain working test solutions. The working test solutions were not filtered/ sterilized but microbial contamination was controlled by addition of gentamycin in complete growth medium used for dilution of stock solutions to prepare working test solutions.
(§3) In vitro cytotoxicity against human cancer cell lines was determined^2 [Monk. A., et. al. (1991); Feasibility high flux anticancer screen utilizing diverse panel of human tumor cell lines in culture. J Natl Cancer Inst. 83, 757-766] using 96-well tissue culture plates. The cells were grown in tissue culture flasks in complete growth medium at 37°C in an atmosphere of 5% CO2 and 95% relative humidity in a carbon dioxide incubator. The cell suspension of required cell density (1-2 lakhs/ml) depending on the mass doubling time of cell lines was prepared in complete growth medium for determination of cytotoxicity. The aliquots of 100 µl of cell suspension were added to each well on a 96-well tissue culture plate. The blank wells contained complete medium in place of cell suspension. Simultaneously, control experiments with positive controls containing known anticancer agents were carried out. Cells were incubated for 24 hr.
(§4) The test materials (100 µl in each well) were added after 24-hours to the wells containing cell suspension and blank wells. The cells were allowed to grow in presence of test material by further incubating the plates for 48 hours. At the end of incubation period the cell growth was stopped by gently layering trichloroacetic acid (50% TCA, 50µl/well) on top of the medium in all the wells. The plates were incubated at 4°C for 1 hr. The plates were washed five times with distilled water to remove TCA, growth medium, low molecular weight metabolites, serum proteins etc. and air-dried.
(§5) The cell growth was measured^3 [Skehan, P, Storeng, R Scudiero, D, Monks, A, Mcmahon, J, Vistica, D, Warren, J.T., Bokesch, H., Kenney, S., Boyd, M.R. (1990). New colorimetric cytotoxicity assay for anti-cancer drug screening. J Natl Cancer Inst. 82: 1107-12] by staining with Sulphorhodamine B. Sulphorhodamine B (SRB, 0.4% in 1% acetic acid, 100 µl/well) was added to each well and plates were allowed to stand at room temperature for 30 minutes. The plates were washed with 1% acetic acid four times and then dried. Tris-HCl buffer (0.01 M, pH 10.5, 100 µl/well) was added to each well to solublise the dye. The plates were shaken gently for 10 minutes on a shaker and the optical density was recorded on ELISA reader at 540 nm. The cell growth was determined by subtracting mean OD value of respective blank from the mean OD value of experimental set. Percent growth in presence of test material was calculated considering the growth in absence of any test material as 100% and in turn percent growth inhibition in presence of test material was calculated. All the experiments were carried out in quadruplicate.

Assay [5] deals with A549. In words: SRB in vitro cytotoxicity, human tumor cell line. It is filed as cell-based. The settings on record: 10^-5 M, Lung: A549, read-out: growth inhibition. On the procedure: as §1, §2, §3, §4, §5
Assay [6] concerns Hep-2. In words: SRB in vitro cytotoxicity, human tumor cell line. Format: cell-based. The following applies: 10^-5 M, Liver: Hep-2, read-out: growth inhibition. On the procedure: as §1, §2, §3, §4, §5
Assay [7] relates to SKOV-3. In words: SRB in vitro cytotoxicity, human tumor cell line. Format: cell-based. The settings on record: SK-OV-3, 10^-5 M, Ovarian: SKOV-3, read-out: growth inhibition. On the procedure:
as §1, §2, §3, §4, §5

The subject of assay [8] is HT-29. In words: SRB in vitro cytotoxicity, human tumor cell line. Format: cell-based. The settings on record: 10^-5 M, Colon: HT-29, read-out: growth inhibition. On the procedure: as §1, §2, §3, §4, §5
The test system of assay [9] is COLO-205. Put plainly: SRB in vitro cytotoxicity, human tumor cell line. Format: cell-based. The settings on record: 10^-5 M, Colon: COLO-205, read-out: growth inhibition. On the procedure: as §1, §2, §3, §4, §5
Assay [10] relates to OVCAR-5. In words: SRB in vitro cytotoxicity, human tumor cell line. It is filed as cell-based. The settings on record: 10^-5 M, Ovary: OVCAR-5, read-out: growth inhibition. On the procedure: as §1, §2, §3, §4, §5
Assay [11] relates to HCT-15. In words: SRB in vitro cytotoxicity, human tumor cell line. Format: cell-based. The settings on record: 10^-5 M, Colon: HCT-15, read-out: growth inhibition. On the procedure:
as §1, §2, §3, §4, §5

The test system of assay [12] is DU-145. Put plainly: SRB in vitro cytotoxicity, human tumor cell line. It is filed as cell-based. The following applies: 10^-5 M, Prostate: DU-145, read-out: growth inhibition. On the procedure: as §1, §2, §3, §4, §5
For assay [13], the system named is SW-620. In words: SRB in vitro cytotoxicity, human tumor cell line. It is filed as cell-based. The following applies: 10^-5 M, Colon: SW-620, read-out: growth inhibition. On the procedure: as §1, §2, §3, §4, §5
Assay [14] deals with 502713. Put plainly: SRB in vitro cytotoxicity, human tumor cell line. Format: cell-based. The following applies: 10^-5 M, Colon: 502713, read-out: growth inhibition. On the procedure:
as §1, §2, §3, §4, §5

The test system of assay [15] is SK-N-SH. In words: SRB in vitro cytotoxicity, human tumor cell line. Format: cell-based. The following applies: 10^-5 M, Neuroblastoma: SK-N-SH, read-out: growth inhibition. On the procedure:
as §1, §2, §3, §4, §5

Assay [16] concerns MCF-7. In words: SRB in vitro cytotoxicity, human tumor cell line. It is filed as cell-based. The following applies: MCF7, 10^-5 M, Breast: MCF-7, read-out: growth inhibition. On the procedure:
as §1, §2, §3, §4, §5

Structures are written as SMILES. Some results are limits rather than exact numbers.

Turning to `O=C1c2cccc3c([N+](=O)[O-])ccc(c23)C(=O)N1CCCCl` [Compound 3f, 6-Nitro-2-[3-(Chloropropyl)]-1H-benz[de]isoquinoline-1,3-dione], the “MST” value in [1] turned out to be 34.0 days. The figures for the “late apoptotic cells (Annexin V^+/PI^+)” value in [2] (3 µg/ml) and in assay [2] (5 µg/ml) were 1.05% and 4.82%, respectively. Further, the results for the total apoptotic cells in [2] (3 µg/ml) and in [2] (5 µg/ml) were 7.43% and 18.44%, respectively. Moreover, in assay [3], the IC50 turned out to be 1.95 µM. In addition, the inhibition at 10 µM was greater than 50% in [4]; no more than 50% in [5]; greater than 50% in assay [6]; no more than 50% in [7]; greater than 50% in [8]; greater than 50% in assay [9]. The inhibition at 10 µM in [10], in [11], in assay [12], in [13], in [14] and in [15] was greater than 50% each time. The inhibition at 10 µM in [16] was greater than 50%.
